Experimental data taken from patent US9187397B2 (STC.UNM, priority 2004, dated 2015).
Where two headings read alike, the source gives them in different places.

Assays:
[1] = molecular target: glutathione S-transferase P1-1 (Homo sapiens (Human), UniProt P09211); assay: GSTP1-1 enzyme inhibition assay (CDNB/GSH, 340 nm); assay type: biochemical; settings: 1 mM CDNB, 1 mM GSH, pH 6.5; compared with curcumin
Description: Kinetic analysis assays were conducted. […] GSTP1-1 activity was measured at pH 6.5 in 1 ml volumes of 20 mM potassium phosphate buffer containing 100 mM NaCl, 1 mM CDNB and 1 mM GSH. […] (Perkin/Elmer Lambda 2S spectrophotometer). These activities were plotted as percent of control (GSTP1-1 activity without inhibitors). Kinetic analysis (dissociation constants) of inhibitors was determined by linear regression analysis of the Dixon, plots. […] Ki's were calculated utilizing SigmaPlot's Enzyme Kinetics Module™ (Chicago, Ill., USA). […]
These activities were plotted as percent of control (GSTP1-1 activity without inhibitors).

[2] = Total Radical-trapping Anti-oxidant Parameter assay (TRAP assay); design: key to TRAP: active as an antioxidant (+); settings: for TRAP: antioxidant activity
Description: This assay is also known as the Total radical-trapping anti-oxidant parameter assay (TRAP assay). For the TRAP assay (Re et al., Free Rad. Biol. […] The turquoise colored reaction was allowed to stabilize for 5 min and the absorbance monitored on a Perkin Elmer UV/Vis Lambda 2S. […] The following FIGS. 2A-2C) show the analogs active in the TRAP assay.

[3] = Ferric Reducing/Anti-oxidant Power assay (FRAP assay); design: key to FRAP: active as an antioxidant (+); settings: for FRAP: antioxidant activity
Description: Anti-oxidant activity was also measured in the Ferric reducing/anti-oxidant power assay (FRAP assay) in which the analogs are reacted with a ferric tripyridyltriazine complex. For the FRAP assay (Benzie et al., Meth. Enzymol. 1999, 299, 15-27), the ferric complex was prepared at room temperature by reaction of ferric chloride (16.7 mM) and 2,4,6-tripyridyl-s-triazine (8.33 mM) in acetate buffer (0.25 M) to pH 3.6. The FRAP reagent was used immediately after preparation. […] The reaction was mixed by vortexing, allowed to stabilize for 5 min and the absorbance recorded on a Perkin Elmer UV/Vis Lambda 2S. […] The synthetic analog of α-tocopherol (vitamin E), Trolox, was used as a reference standard (10 μM in ethanol).
The second assay used, the FRAP assay, determines the analogs abilities to reduce a Fe(III) tripyridyltriazine complex to a Fe(II) tripyridyltriazine complex. The following FIGS. 3A-3C) show analogs active in the FRAP assay.

NF-κB = NF-κB luciferase reporter cellular assay (293T/NF-κB-luc, TNFα-stimulated); assay type: cell-based, human; settings: for inhibition of the activation of NF-κB by TNFα (screen): 10 μM, compared with curcumin; for IC50: Homo sapiens, HEK-293T, inhibition of TNFα-induced NF-κB activation
Description: The cell line is derived from human 293T embryonic kidney cells expressing the large T antigen containing a chromosomal integration of a luciferase reporter construct regulated by 6 copies of the NF-κB response element (Panomics, Inc.). This stable clonal cell line is obtained by co-transfection of pNF-κB-luc and pTK-hyg containing plasmids followed by the addition of hygromycin (200 μg/ml) to maintain cell selection.
The cell line was grown in a humidified atmosphere at 37° C. in 5% CO2/95% air and maintained in Dulbecco's Modified Eagle's Medium (DMEM-high glucose containing 4 mM glutamine) containing fetal bovine serum (FBS, 10%), sodium pyruvate (1 mM), penicillin (100 units/ml), streptomycin (100 μg/ml) and hygromycin (100 μg/m) to maintain cell selection (Gibco/Invitrogen).
The 293T/NF-κB-luc cells were re-plated 24 hr prior to treatment, into 24-well cell culture plates in media without hygromycin, to prevent it from interfering with the assay. The cells were then allowed to grow and attach, to the wells, for 24 hr in a humidified atmosphere at 37° C. in 5% CO2/95% air. […] The cells then were placed again in a humidified atmosphere at 37° C. in 5% CO2/95% air for 7 hr. Plate wells were gently washed with PBS, pH 7.4, and lysed with passive lysis buffer (1×, 100 μl, Promega). The subsequent chemiluminescent lysates were analyzed with the Luciferase Assay System (Promega) utilizing a TD-20/20 luminometer. The relative light units (photons) were determined by the addition of firefly luciferase substrate (75 μl) to cell lysate (10 μl). The light units were then normalized to the amount of protein in the well (mg/ml) with BCA™ Protein Assay Kit (Pierce) and standardized to percent of control (TNFα).
This assay utilized a commercially available cell line (Panomics 293T-luc cellular assay) developed for screening inhibitors of NF-κB. This cell line is stably transfected with a luciferase reporter controlled by an NF-κB dependent promoter. The cell is stimulated with tumor necrosis factor alpha (TNFα) which activates NF-κB. NF-κB then binds to one of six promoter regions on the cell's DNA leading to the production of a luciferase enzyme. Luciferin is added to the cell lysates and the luciferase enzyme catalyzes a cleavage of luciferin leading to the emission of light.
This cell line was developed by Panomics for screening potential inhibitors of NF-κB. Cells are stimulated with TNF-α to express luciferase, whose activity is monitored in a chemiluminometer.
An NF-κB reporter stable cell line from human 293T embryonic kidney cells (293T/NFκB-luc) (Panomics) was grown in a humidified atmosphere at 37° C. in 5% CO2/95% air. The cells were maintained in Dulbecco's Modified Eagle's Medium (DMEM—high glucose containing 4 mM glutamine) supplemented with 10% fetal bovine serum (FBS), 1 mM sodium pyruvate, 100 units/ml penicillin, 100 μg/m streptomycin and 100 μg/ml hygromycin (Gibco/Invitrogen, Carlsbad, Calif.)) to maintain cell selection. One day prior to treatment, the 293T/NFκB-luc cells were plated into 24-well cell culture plates (Costar) at approximately 70% confluency in the above media without hygromycin. The following day cells were fed fresh media 1 hour prior to treatment. […] The cells were placed again in a humidified atmosphere at 37° C. in 5% CO2/95% air for 7 hours. Plate wells were gently washed with phosphate buffered saline, pH 7.4, and lysed with 1× passive lysis buffer (Promega). The subsequent lysates were analyzed with the Luciferase Assay System (Promega) utilizing a TD-20/20 luminometer (Turner Designs). The firefly luciferase relative light units were normalized to protein (mg/ml) with BCATM Protein Assay Kit (Pierce) and standardized to TNF-α control.

AP-1 = AP-1 luciferase reporter cellular assay (293/AP1-luc, PMA-stimulated); assay type: cell-based, human; settings: for activity in the AP-1 cellular assay (screen): 15 μM, compared with curcumin; for IC50: Homo sapiens, inhibition of PMA-induced AP-1 activation, 293/AP1-luc cells, Table 10, read-out: AP-1 IC50
Description: This cell line is obtained by co-transfection of pAP1-luc and pTK-hyg containing plasmids followed by the addition of hygromycin (200 μg/ml) to maintain cell selection.
After 24 hr, the cells had reached approximately 60% confluency. […] Plate wells were gently washed with PBS, pH 7.4, and lysed with passive lysis buffer (1×, 100 μl, Promega). The subsequent chemiluminescent lysates were analyzed with the Luciferase Assay System (Promega) utilizing a TD-20/20 luminometer. The relative light units (photons) were determined by the addition of firefly luciferase substrate (75 μl) to cell lysate (10 μl). The light units were then normalized to the amount of protein in the well (mg/ml) with BCA™ Protein Assay Kit (Pierce) and standardized to percent of control (PMA).
This cell line is stably transfected with a luciferase reporter controlled by an AP-1 dependent promoter. The cell is stimulated with phorbol ester which activates AP-1. AP-1 then binds to one of three promoter regions on the cells DNA leading to the production of a luciferase enzyme. Luciferin is added to the cell lysates and the luciferase enzyme catalyzes a cleavage of luciferin leading to the emission of light.

[4] = 293T/NF-κB-luc cells, Table 5, read-out: IC50
[5] = 10 μM in ethanol, compared with curcumin

Chain of glutathione S-transferase P1-1 (P09211 2-210): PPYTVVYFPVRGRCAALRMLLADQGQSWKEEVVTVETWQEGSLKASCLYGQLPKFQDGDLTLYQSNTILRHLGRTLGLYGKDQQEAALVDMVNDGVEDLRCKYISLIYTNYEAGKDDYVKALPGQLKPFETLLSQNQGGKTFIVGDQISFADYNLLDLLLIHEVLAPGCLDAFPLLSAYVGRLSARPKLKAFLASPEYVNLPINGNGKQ

With `CC(C(=O)C=Cc1ccccc1)=C(O)C=Cc1ccccc1` [6b] the “activity in the GSTP1-1 screening assay” value [1] was “more active than curcumin”.
With `O=C(/C=C/c1cccc(Cl)c1)/C=C/c1cccc(Cl)c1` [20y] the “activity in the GSTP1-1 screening assay” value [1] was “better inhibitory activity than curcumin”.
With `O=C(/C=C/c1ccccc1)C(Cc1ccccc1)(Cc1ccccc1)C(=O)/C=C/c1ccccc1` [12b] the “activity in the GSTP1-1 screening assay” value [1] was “more active than curcumin”.
For `O=C(/C=C/c1cccc(O)c1)/C=C/c1cccc(O)c1` [20p], the “activity in the GSTP1-1 screening assay” value [1] was “better inhibitory activity than curcumin”.
For `O=C(/C=C/c1ccccc1)/C=C/c1ccccc1` [20b], the “activity in the GSTP1-1 screening assay” value [1] was “better inhibitory activity than curcumin”.
In the case of `COc1cc(/C=C/C(=O)/C(Cc2ccccc2)=C(O)/C=C/c2ccc(O)c(OC)c2)ccc1O` [9a], the TRAP ([2]; 10 μM in ethanol, Table 5) is reported as “+”, the TRAP ([2]; Table 10) is reported as “+” and the FRAP ([3]; 10 μM in ethanol, Table 5) is reported as “+”. The FRAP ([3]; Table 10) was “+”, the “inhibition of the activation of NF-κB by TNFα (screen)” value (shortened to “inhibition of the activation of NF-κB”) (NF-κB) was “more active than curcumin” and the IC50 (NF-κB; [4]) was 7.6 µM. For the same molecule, the IC50 (NF-κB; Table 10, read-out: NF-κB IC50) was 7.6 µM, the “activity in the AP-1 cellular assay (screen)” value (“activity … (screen)” for short) (AP-1) was “more active than curcumin” and the IC50 (AP-1) was 5.3 µM.
For `O=C(/C=C/c1ccncc1)/C=C/c1ccncc1` [compound 29], the “inhibition of the activation of NF-κB” value (NF-κB) was “more active than curcumin”, the “activity … (screen)” value (AP-1) was “more active than curcumin” and the IC50 (AP-1) was 8.2 µM. The “activity in the GSTP1-1 screening assay” value [1] was “better inhibitory activity than curcumin”.
In the case of `O=C(/C=C/c1ccccc1Cl)/C=C/c1ccccc1Cl` [20z], the “activity in the GSTP1-1 screening assay” value [1] is reported as “better inhibitory activity than curcumin”.
For `COc1cc(/C=C/C(=O)c2ccc(O)c(OC)c2)ccc1O` [45a], the “activity in the TRAP assay” value [2, 5] was “more active than curcumin”, the “activity in the FRAP assay” value [3, 5] was “active” and the “inhibition of the activation of NF-κB” value (NF-κB) was “more active than curcumin”. The “activity … (screen)” value (AP-1) was “most active”.
In the case of `O=C(/C=C/c1ccccc1)/C(Cc1ccccc1)=C(O)/C=C/c1ccccc1` [9b], the “activity … (screen)” value (AP-1) is reported as “active” and the “activity in the GSTP1-1 screening assay” value [1] is reported as “more active than curcumin”.
For `COc1ccccc1/C=C/C(=O)/C=C(O)/C=C/c1ccccc1OC` [3c], the “activity in the GSTP1-1 screening assay” value [1] was “more active than curcumin”.
In the case of `COc1cc(/C=C/C(=O)/C(C)=C(O)/C=C/c2ccc(O)c(OC)c2)ccc1O` [6a], the TRAP ([2]; 10 μM in ethanol, Table 5) is reported as “+”, the TRAP ([2]; Table 10) is reported as “+” and the FRAP ([3]; 10 μM in ethanol, Table 5) is reported as “+”. The FRAP ([3]; Table 10) was “+”, the “inhibition of the activation of NF-κB” value (NF-κB) was “more active than curcumin” and the IC50 (NF-κB; [4]) was 6.8 µM. The IC50 (NF-κB; Table 10, read-out: NF-κB IC50) was 6.7 µM, the “activity … (screen)” value (AP-1) was “more active than curcumin” and the IC50 (AP-1) was 6 µM.
In the case of `Cc1cccc(/C=C/C(=O)/C=C/c2cccc(C)c2)c1` [20ab], the “activity in the GSTP1-1 screening assay” value [1] is reported as “better inhibitory activity than curcumin”.
For `O=C(/C=C(O)/C=C/c1ccccc1)/C=C/c1ccccc1` [3b], the “activity in the GSTP1-1 screening assay” value [1] was “more active than curcumin”.
For `Cc1ccc(/C=C/C(=O)/C=C/c2ccc(C)cc2)cc1` [20aa], the “activity in the GSTP1-1 screening assay” value [1] was “better inhibitory activity than curcumin”.
For `O=C(/C=C/c1cccnc1)/C=C/c1cccnc1` [compound 31], the “inhibition of the activation of NF-κB” value (NF-κB) was “more active than curcumin”, the IC50 (NF-κB; [4]) was 3.4 µM and the IC50 (NF-κB; Table 10, read-out: NF-κB IC50) was 3.4 µM. For the same molecule, the “activity … (screen)” value (AP-1) was “more active than curcumin”, the IC50 (AP-1) was 4.1 µM and the “activity in the GSTP1-1 screening assay” value [1] was “better inhibitory activity than curcumin”.
With `O=C(/C=C/c1ccc(O)cc1)/C=C/c1ccc(O)cc1` [20f] the “activity in the GSTP1-1 screening assay” value [1] was “better inhibitory activity than curcumin”.
With `O=C(/C=C/c1ccc(Cl)cc1)/C=C/c1ccc(Cl)cc1` [20x] the “activity in the GSTP1-1 screening assay” value [1] was “better inhibitory activity than curcumin”.
